Results published in patent US12208118B2, “Pharmaceutical compositions for delivery of peptide” (ANYA BIOPHARM INC., priority 2017, dated 2025).

Assays:
[1] = Quantification of insulin glargine level in STZ induced diabetic rat plasma (Glargine ELISA), bioavailability; type: in vivo, S.D. rats; conditions: following subcutaneous and mid-jejunum administration, rats
Description: (§1) Quantification of Glucose & Insulin Glargine Level in STZ Induced Diabetic Rat Plasma
(§2) Glucose & insulin glargine levels in plasma were quantified after dosing several formulations of insulin glargine to mid-jejunum in STZ induced diabetic S.D. rats.
(§3) Test formulation I: Insulin glargine (Lantus®)—Appearance: Solution for injection in a prefilled pen; Concentration: 100 IU/ml; Storage condition: 2-8° C.; Dose: 0.2 U/kg; Route: SC.
(§4) Test formulation II: Insulin glargine Formulation—MIRA 1 (Reduced glutathione/Chromium Picolinate of Table 15A)+Permeation Enhancer 1 (PA 1 of Table 16A) (oral solution in TRIS buffer)—Dose: 1.7 U/animal; Route: mid-jejunum
(§5) Test formulation III: Insulin glargine Formulation—PA 2 (of Table 16B) and MIRA 2 (Ascorbate Sodium/Vanadium Oxide of Table 15B) (oral solution in TRIS buffer)—Dose: 1.7 U/animal; Route: mid-jejunum.
The clinical signs observed are normal. […] Glucose was measured immediately after blood collection using Glucometer. […]
Principle: This Glargine ELISA is a two-site immunoassay, employing a monoclonal antibody immobilised on microtitre wells and a soluble antibody labelled with horseradish peroxidase (HRP). […] The intensity of the colour developed in each well is quantified in a microtitre plate reader set to record transmitted light at a wavelength of 450 nm (Kit Protocol: Used manufacturer recommended protocol Cat. No. MBS495369) […]

[2] = tested on: STZ induced diabetic S.D. rats; test: Glucose level in STZ induced diabetic rats after different formulations (Glucometer, % inhibition); type: in vivo; conditions: glucose by Glucometer
Description: as §1, §2, §3, §4, §5
The clinical signs observed are normal. With respect to sampling time points, during dosing, the blood collection time points was at 0, 20, 40, 60, 120 and 150 minutes post dose. ˜100 μl of blood was collected in a pre-filled Na-EDTA eppendorf, from retro-orbital sinus puncture. Blood was centrifuged at 5000 rpm, 5 min, 4° c. to obtain plasma. Glucose was measured immediately after blood collection using Glucometer.

[3] = target: T1, Human Carboxypeptidase B (Homo sapiens, UniProt P15086); test: Oxidative inactivation of Carboxypeptidase by combinations of metal salts and reducing agents (enzymatic activity); type: biochemical; conditions: reducing agent 1 mM, metal salt 5 μM, compared with original activity, in % (unit assumed)
T1 sequence (P15086 111-417): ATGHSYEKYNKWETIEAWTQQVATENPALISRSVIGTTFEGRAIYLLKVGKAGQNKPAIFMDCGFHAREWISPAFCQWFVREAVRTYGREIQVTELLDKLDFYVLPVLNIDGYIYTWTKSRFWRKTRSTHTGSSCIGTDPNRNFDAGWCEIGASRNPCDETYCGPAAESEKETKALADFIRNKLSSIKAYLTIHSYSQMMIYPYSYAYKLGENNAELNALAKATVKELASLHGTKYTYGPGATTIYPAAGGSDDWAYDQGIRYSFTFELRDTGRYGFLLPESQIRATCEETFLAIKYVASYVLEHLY
Description: (§6) Enzyme Activity Assay: The assay of enzymatic activity of each enzyme in the presence of its specific substrate was performed at a particular wavelength by using UV spectrophotometer, and it served as a negative control. The enzyme activity was calculated as: […]
(§7) Enzyme Inhibition Assay: Incubation was performed with inhibitor of each enzyme, which served as a positive control.
(§8) Incubation with metal ion(s) and reducing agent(s): Incubation of enzymes with combination of metal salt(s) and reducing agent(s) in microtitre 96 well plate was done for a specific period of time in presence of substrates to examine their oxidative inactivation. Inactivation of enzyme in presence of metal ion(s) and reducing agent(s) was compared with the original enzyme activity in the presence of substrate as a negative control and in the presence of inhibitor as a positive control.
Assay for Enzymatic Activity of Carboxypeptidase B Using Hippuryl-Arginine
4 units of Carboxypeptidase B in cold deionized water, 1 mm Hippuryl-Arginine solution in 25 mM Iris Buffer solution containing 100 mM Sodium Chloride (pH 7.65) were prepared, separately at about 25° C. 3 ml reaction mixtures (Test and blank) were prepared using above prepared solutions according to Table 9 at 25° C. […]
(§9) For a 200 μl reaction mixture, about 10 μl Carboxypeptidase was incubated in buffer with the combination of metal salts and reducing agents (provided in Table 2 at serial number 1 through 31) at respective concentration at 37° C. in 96 well microtitre plates (Table 3 hereinabove provides details on utilization of a particular combination from those provided at serial number 1 through 31 in Table 2) for 5 min, 15 min and 30 min followed by the addition of respective 90 μl substrate (provided in Table 1A). The enzyme activity was measured spectrophotometrically in a microplate reader, and was compared with original activity assay. The pH was measured by Hanna Combination pH electrode (reaction with enzyme was performed in triplicates). […]

[4] = target: T2, Porcine Aminopeptidase M (Sus scrofa, UniProt P15145); test: Oxidative inactivation of Aminopeptidase by combinations of metal salts and reducing agents (enzymatic activity); type: biochemical; conditions: compared with original activity, in % (unit assumed)
T2 sequence (P15145 1-963): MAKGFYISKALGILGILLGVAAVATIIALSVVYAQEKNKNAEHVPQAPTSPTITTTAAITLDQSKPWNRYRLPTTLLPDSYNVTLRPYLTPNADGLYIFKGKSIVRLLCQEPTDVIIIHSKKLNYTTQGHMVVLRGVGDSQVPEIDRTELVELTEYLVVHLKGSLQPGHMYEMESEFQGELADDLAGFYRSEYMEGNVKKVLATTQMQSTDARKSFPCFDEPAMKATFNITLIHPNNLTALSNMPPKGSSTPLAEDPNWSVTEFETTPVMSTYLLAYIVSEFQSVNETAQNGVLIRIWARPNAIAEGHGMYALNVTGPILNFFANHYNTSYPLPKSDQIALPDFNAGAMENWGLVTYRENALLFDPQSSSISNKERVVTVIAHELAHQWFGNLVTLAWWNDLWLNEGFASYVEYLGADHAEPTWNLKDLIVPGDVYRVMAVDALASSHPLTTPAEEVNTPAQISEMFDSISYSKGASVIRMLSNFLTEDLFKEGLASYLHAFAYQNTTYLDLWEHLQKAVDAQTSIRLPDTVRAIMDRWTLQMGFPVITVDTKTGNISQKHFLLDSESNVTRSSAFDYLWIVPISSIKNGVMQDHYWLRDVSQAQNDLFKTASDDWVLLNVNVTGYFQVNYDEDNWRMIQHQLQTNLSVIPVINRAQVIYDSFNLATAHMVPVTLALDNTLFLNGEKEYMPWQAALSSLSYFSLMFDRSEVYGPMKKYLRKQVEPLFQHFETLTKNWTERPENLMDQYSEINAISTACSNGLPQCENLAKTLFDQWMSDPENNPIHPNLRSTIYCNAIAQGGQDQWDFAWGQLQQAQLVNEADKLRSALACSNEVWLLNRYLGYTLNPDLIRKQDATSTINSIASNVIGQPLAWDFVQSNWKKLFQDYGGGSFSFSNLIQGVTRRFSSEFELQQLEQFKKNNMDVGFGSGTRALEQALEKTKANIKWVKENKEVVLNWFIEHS
Description: as §6, §7, §8
To Assay the Enzymatic Activity of Aminopeptidase M Using L-Leucine-p-Nitroanilide
1 mM Tricine solution (Prepared in 100 ml deionized water, Reagent A) and 50 mM L-Leucine-p-nitroanilide solution in absolute methanol (Reagent B) were prepared, separately. […] Reagent G, Reagent E and Reagent F were mixed immediately by inversion to prepare test and blank solution as directed in table 12, and the increase in ΔA405 nm was recorded for approximately 5 minutes. ΔA405 nm/minute was obtained using maximum linear rate for both the Test and blank solution. […]
as §9, with “Aminopeptidase” for “Carboxypeptidase”, “assay.” for “assay. The pH was measured by Hanna Combination pH electrode (reaction with enzyme was performed in triplicates).”

Enzymatic activity of Carboxypeptidase ([3]; incubation 5 min at 37° C.)	Enzymatic activity of Carboxypeptidase ([3]; incubation 15 min at 37° C.)	Enzymatic activity of Carboxypeptidase ([3]; incubation 30 min at 37° C.)	Enzymatic activity of Aminopeptidase ([4]; Time 5 min incubation at 37° C.)	Enzymatic activity of Aminopeptidase ([4]; Time 15 min incubation at 37° C.)	Enzymatic activity of Aminopeptidase ([4]; Time 30 min incubation at 37° C.)	Molecule	clinical signs [1]	mortality [1]	% inhibition ([2]; 20 min post dose)	% inhibition ([2]; 40 min post dose)	% inhibition ([2]; 60 min post dose)	% inhibition ([2]; 120 min post dose)	% inhibition ([2]; 150 min post dose)
						Insulin glargine	normal	no mortality observed	22.9%	25.5%	22%	39%	17.2%
104.5	91.7	62.26	108	100.4	80.52	O=C(/C=C/C=C/c1ccc2c(c1)OCO2)N1CCCCC1 [Piperine]							
